Source: patent US9586985B2, “Organic compounds as proantigens for natural killer T cells” (Callaghan Innovation Research Limited, priority 2012, dated 2017)
Entries after “also recorded” stand apart in the source; their conditions may differ. Values belong to the molecule of their own block, whether it stands above or below them.

What was measured:
[1] = HPLC-ESI-MSMS quantification of α-GalCer in test samples; assay type: physicochemical
Experimental: Quantification of the amount of α-GalCer in various test samples of compounds of the invention is made by HPLC-ESI-MSMS analysis using a Waters 2795 HPLC and a Waters Q-TOF Premier™ Tandem Mass Spectrometer. The chromatography used a Phenomenex Kinetex C18 […] 3.0×50 mm column eluting with isocratic methanol containing 10 mM ammonium formate+0.5% formic acid at a flow rate of 0.2 mL/min. α-GalCer is monitored by selective reactant monitoring of 858.7 to 696.7 Da. The estimate of amount of α-GalCer is made by comparison of ion count integrals to a standard curve run on the same day or by comparison to test samples spiked with a known amount of α-GalCer.
The level of α-GalCer is determined on freshly reconstituted formulated samples unless otherwise stated. The estimated maximum level of α-GalCer for key compounds is given below.

[2] = system: NKT cells / CD11c+ dendritic cells; test: CD86 expression on splenic dendritic cells after injection (DC activation as measure of NKT cell activation); assay type: in vivo, C57BL/6 mice; conditions: 200 ng i.v. (FIG. 7: molar equivalent of 200 ng α-GalCer), spleens removed 20 h later, flow cytometry
Experimental: (§1) Groups of C57BL/6 mice (n=3) are injected intravenously with 200 ng of the indicated compounds and then the spleens are removed 20 h later for the analysis of CD86 expression on CD11c+ dendritic cells by antibody labelling and flow cytometry. Mean fluorescence index±SEM are presented.
as §1, with “200 ng of α-GalCer or an equivalent molar amount of the” for “200 ng of the”, “are presented. (Compound CN158A1b=CN158 formulated in accordance with Example 15. Compound CN158A=CN158 in water.)” for “are presented.”
Each compound of the invention is supplied as formulated product (see example 12), and diluted in phosphate-buffered saline (PBS) for injection (200 ng/mouse) by intravenous injection into the lateral tail vein. In humans the expected therapeutic dose lies in the 50-4800 (μg/m^2) range (Giaccone, Punt et al. 2002). Note, 200 ng in a mouse is a human equivalent dose of 30 μg/m^2.
All antibody labeling is performed on ice in FACS buffer (PBS supplemented with 1% FCS, 0.05% sodium azide, and 2 mM EDTA). Non-specific FcR-mediated antibody staining is blocked by incubation for 10 min with anti-CD16/32 Ab (24G2, prepared in-house from hybridoma supernatant). […]

[3] = system: cytokines IL-12p70, IL-4 and IFN-g; test: Cytokine release into serum after injection (cytokine bead array); assay type: in vivo, C57BL/6 mice; conditions: for cytokine profile in vivo compared to α-GalCer: 200 ng i.v. or molar equivalent
Experimental: (§2) Groups of C57BL/6 mice (n=3 per group) are injected intravenously with 200 ng of the indicated compounds, and then the serum is collected at the indicated times for analysis of cytokine levels by cytokine bead array technology.
as §2, with “ng of α-GalCer or an equivalent molar amount” for “ng”, “technology. (Compound CN158A1b=CN158 formulated in accordance with Example 15; Compound CN158A=CN158 in water.)” for “technology.”
Blood is collected from the lateral tail vein at different time intervals after glycolipid administration. Serum is collected after blood has clotted, and levels of cytokines IL-12p70, IL-4 and IFN-g are assessed by cytokine bead array technology (Bioplex, Biorad), according to the manufacturer's instructions.

Water solubility = assay type: physicochemical
B16.OVA melanoma cells = test: Anti-tumour activity against subcutaneous B16.OVA tumours, given with OVA protein; assay type: in vivo, C57BL/6 mice; conditions: i.v. with 200 μg OVA protein seven days after tumour challenge
Experimental: Progression of subcutaneous B16.OVA tumours is monitored in animals that are treated seven days after tumour challenge with intravenous OVA protein together with the indicated compounds, or treated with PBS. The mean tumour sizes per group (n=5)±SEM are shown.
Progression of subcutaneous B16.OVA tumours is monitored in animals that are treated seven days after tumour challenge with intravenous OVA protein together with the indicated compounds, or treated with PBS. The mean tumour sizes per group (n=5)±SEM are shown. […] (Compound CN158A=CN158 in water.)
Groups of C57BL/6 mice (n=5) receive a subcutaneous injection into the flank of 1×10^5 B16.OVA melanoma cells, which express a cDNA encoding the chicken ovalbumin (OVA) sequence. The different groups are treated 7 days later, when tumours are fully engrafted, by intravenous injection of one of the following; 200 μg OVA protein together with 200 ng α-GalCer, 200 μg OVA protein together with 200 ng of a compound of the invention, or PBS. Mice are monitored for tumour growth every 3-4 days, and tumour size for each group is calculated as the mean of the products of bisecting diameters (±SEM). Measurements are terminated for each group when the first animal develops a tumour exceeding 200 mm^2.

[4] = literature statement; cited from earlier work
[5] = system: SIINFEKL-specific T cells; test: Peptide-specific T cell proliferation in vivo (adjuvant with OVA); design: species or system C57BL/6 mice; conditions: co-administered i.v. with OVA, molar dose equivalent to α-GalCer, blood after seven days
Experimental: The compounds are injected to give the equivalent molar dose as compared to α-GalCer. To increase sensitivity of the assay, all mice are initially donated a cohort of 10,000 SIINFEKL-specific T cells from a transgenic mouse encoding a T cell receptor for this antigen (OT-1 mice), which is undertaken by intravenous injection of the cells one day before the vaccines are administered. […] It is therefore possible to enumerate SIINFEKL-specific T cells in blood by flow cytometry using antibodies for CD45.1 together with antibodies for the transgenic T cell receptor (Vα2). […] Control animals are injected with the diluent phosphate-buffered saline (PBS). Each dot represents a different animal; mean per treatment group±SEM are presented. ***p<0.001, ** p<0.01, * p<0.05.
Pooled lymph node cell suspensions are prepared from animals of a cross between OT-I mice, which express a transgenic T cell receptor (TCR) specific for the ovalbumin epitope SIINFEKL in the context of H-2K^b molecules, and B6.SJL-Ptprc^a Pepc^b/BoyJ mice, which are congenic with C57BL/6 mice for the CD45.1^+ marker. The samples are enriched for CD8^+ cells using antibody coated magnetic beads (Miltenyi), and then transferred into C57BL/6 mice (1×10^4 per mouse). Groups of recipient animals (n=5) are immunized with compounds of the invention one day later. Doses are chosen to provide equivalent molar values of SIINFEKL peptide. […]

[6] = non-formulated / unformulated sample (CN158*: aqueous solution)
[7] = freshly reconstituted formulated sample, estimated maximum level

Molecule: CCCCCCCCCCCCCCCCCCCCCCCCCC(=O)O[C@H](CCCCCCCCCCCCCC)[C@@H](O)[C@H](CO[C@H]1O[C@H](CO)[C@H](O)[C@H](O)[C@H]1O)NC(=O)OCOP(=O)(O)O [CN131, (2S,3S,4R)-1-O-α-D-Galactopyranosyl-4-O-hexacosanoyl-2-phosphoryloxymethoxycarbonylamino octadecane-1,3,4-triol]
- Max α-GalCer (ppm) [1, 6]: 6,000 (analysis on non- ppm
- Max α-GalCer/injection [1, 6]: 1.2 ng

Molecule: CCCCCCCCCCCCCCCCCCCCCCCCCC(=O)O[C@H](CCCCCCCCCCCCCC)[C@@H](O)[C@H](CO[C@H]1O[C@H](CO)[C@H](O)[C@H](O)[C@H]1O)NC(=O)OCOC(C)=O [CN136, (2S,3S,4R)-2-Acetoxymethoxycarbonylamino-1-O-α-D-galactopyranosyl-4-O-hexacosanoyl octadecane-1,3,4-triol]
- Max α-GalCer (ppm) [1, 7]: 1,000 ppm
- Max α-GalCer/injection [1, 7]: 0.2 ng

- conversion of CN089 to α-GalCer after formulation ([1]; within 1 hour of formulation, LCMSMS): approximately 50%
Molecule: CCCCCCCCCCCCCCCCCCCCCCCCCC(=O)O[C@H](CCCCCCCCCCCCCC)[C@@H](O)[C@@H](N)CO[C@H]1O[C@H](CO)[C@H](O)[C@H](O)[C@H]1O [CN089, (2S,3S,4R)-2-Amino-1-O-α-D-galactopyranosyl-4-O-hexacosanoyl octadecane-1,3,4-triol]
- DC activation: CD86 expression on splenic CD11c+ dendritic cells [2]: potently activates DCs

Molecule: (2S,3S,4R)-1-O-α-D-Galactopyranosyl-4-hexacosanoyl-2-((4-(2-methoxy(poly(2-ethoxy))imino)pentanoyloxy)methoxycarbonylamino) octadecane-1,3,4-triol [CN147]
- cytokine profile in vivo compared to α-GalCer ([3]; FIGS. 3 and 8): different cytokine profiles
- course of IL-12p70 level in serum ([3]; 200 ng i.v., FIG. 3): still increasing through 6 to 12 h
- ratio of IFN-γ to IL-4 in serum compared to α-GalCer ([3]; 200 ng i.v., FIG. 3): higher ratio of IFN-γ to IL-4 than that of α-GalCer
- Max α-GalCer (ppm) [1, 7]: 615 ppm
- Max α-GalCer/injection [1, 7]: 0.123 ng
- water solubility (Water solubility): ~0.5 mg/mL

Molecule: CCCCCCCCCCCCCCCCCCCCCCCCCC(=O)N[C@@H](CO[C@H]1O[C@H](CO)[C@H](O)[C@H](O)[C@H]1O)[C@H](O)[C@H](O)CCCCCCCCCCCCCC [α-GalCer, α-Galactosylceramide, reference compound]
- time of peak IFN-γ level in serum ([3]; after injection, mice): 12 h
- time of peak IL-4 level in serum ([3]; after injection, mice): 2 to 3 h
- time of peak IL-12p70 level in serum ([3]; after injection, mice): 6 h
- anti-tumour activity: growth of established B16.OVA tumours (B16.OVA melanoma cells): provides therapeutic anti-tumour activity
- water solubility (in words) [4]: low water solubility; also recorded: poor solubility
- SIINFEKL-specific T cell response in blood (adjuvant activity) [5]: induces a population of SIINFEKL-specific T cells

Molecule: (2S,3S,4R)-1-O-α-D-Galactopyranosyl-4-hexacosanoyl-2-((4-(ω-methoxy(poly(ethyleneoxy))imino)pentanoyloxy)methyleneoxycarbonylamino) octadecane-1,3,4-triol [CN158]
- cytokine profile in vivo compared to α-GalCer ([3]; FIGS. 3 and 8): different cytokine profiles
- overall levels of systemic cytokine production ([3]; 200 ng α-GalCer or equivalent i.v., FIGS. 3 and 8): no systemic cytokines are detected; also recorded: No detectable cytokines are observed
- anti-tumour activity: growth of established B16.OVA tumours (B16.OVA melanoma cells): provides therapeutic anti-tumour activity
- Max α-GalCer (ppm) [1, 7]: 180 ppm
- Max α-GalCer/injection [1, 7]: 0.25 ng
- Max α-GalCer (ppm) [1, 6]: 170 ppm
- Max α-GalCer/injection [1, 6]: 0.24 ng
- water solubility (Water solubility): ~38 mg/mL
- SIINFEKL-specific T cell response in blood (adjuvant activity) [5]: induces a similar T cell expansion
